# Laboratory results reported in patent US5443967A, “DNA encoding the cancer associated SCM recognition factor” (priority 1993, dated 1995).
# Columns and labels:
# [1] = tested on: trypsin; assay: Casein-resorufin protease assay: inhibition of trypsin by α-1-PI; assay type: biochemical; settings: 3 μg Trypsin + 6.6 μg α-1-PI; 300 μL
# Experimental: (§1) A protease activity using casein-resorufin as a protease substrate was performed to determine the effect of SCM factor on inhibition of the serine proteases trypsin, elastase, and cathepsin G by the serine protease inhibitor α-1-PI. The protocol provided by the manufacturer, Boehringer-Mannheim Biochemica, was followed to assay protease activity. […] However, when SCM factor was added before α-1-PI or simultaneously in a mixture with α-1-PI, it prevented the inhibition of trypsin by α-1-PI. The degree of this effect depended on the quantity of SCM factor added. […] The active portion of the molecule that prevents inhibition of the proteolytic enzymes by α- 1-PI resides within the first seven amino-terminal amino acid residues of the SCM factor. This portion of the molecule is designated "fraction 6" or F6. The effectiveness of equimolar amounts of the peptide F6, as compared to the entire SCM factor molecule (Table 20) in preventing the inhibition of elastase by α-1-PI is shown in Table 22.
# [2] = tested on: SCM-responding lymphocytes; assay: SCM-response modifying effect of α-1-PI (SCM test after preincubation and washing); assay type: cell-based, human; settings: 2.5 hr α-1-PI + 3X Wash
# Experimental: SCM-responding lymphocytes were isolated from blood samples of a patient with malignant melanoma and from a normal, healthy donor. Half of the lymphocyte suspension from each sample was incubated with 30 nanomoles of α-1-PI per 6×10^6 cells for 2.5 hours at 37° C.; the other half was retained as an untreated control. The cells were then washed three times with PBS. Aliquots from both the untreated controls and the α-1-PI-treated samples were challenged for 40 min with phytohemagglutinin (PHA) or SCM factor. […] The RRSCM was 1.74 in the absence of incubation and 1.68 after incubation.
# [3] = tested on: elastase; assay: Casein-resorufin protease assay: inhibition of elastase by α-1-PI; assay type: biochemical; settings: 3.2 μg Elastase + 6.6 μg α-1-PI
# Experimental: as §1
# [4] = target: T1, cathepsin G (Homo sapiens, UniProt P08311); assay: Casein-resorufin protease assay: inhibition of cathepsin G by α-1-PI; assay type: biochemical; settings: 1 μg Cathepsin G + 6.6 μg α-1-PI; 300 μL
# T1 sequence (P08311 21-244 limits assumed): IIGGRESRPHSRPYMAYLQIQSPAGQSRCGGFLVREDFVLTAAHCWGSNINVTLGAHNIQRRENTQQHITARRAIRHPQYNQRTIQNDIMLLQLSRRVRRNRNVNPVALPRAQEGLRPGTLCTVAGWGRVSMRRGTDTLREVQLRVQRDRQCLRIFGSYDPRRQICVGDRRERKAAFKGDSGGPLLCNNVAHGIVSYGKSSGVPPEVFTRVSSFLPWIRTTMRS
# Experimental: as §1
substance,measurement,setting,value
"α-1-PI: glycoprotein serine protease inhibitor, 55,000 daltons, single chain of 394 residues",Trypsin Activity in Casein-Resorufin Assay as % of Untreated Control Enzyme,[1],13.6%
same,RRSCM,[2]; lymphocyte donor Healthy,1.68
same,RRSCM,[2]; lymphocyte donor Malignant Melanoma,1.8
same,Trypsin Activity in Casein-Resorufin Assay as % of Untreated Control Enzyme,[3]; 300 μL (Table 20),3.5%
same,Elastase Activity in Casein-Resorufin Assay as % of Untreated Control Enzyme,[3]; 300 μL (Table 22),3.4%
same,Cathepsin G Activity in Casein-Resorufin Assay as % of Untreated Control Enzyme,[4],20.0%
